Values of other authors as cited in patent US8883820B2, “Triazole derivatives as kinase inhibitors” (Cellzome Ltd., priority 2006, dated 2014).

Key:
[1] = test system: collagen II-antibody-induced arthritis; settings: oral, wildtype mice
[2] = test system: lymphocyte-dependent rheumatoid arthritis induced by direct collagen II injection; settings: oral
[3] = test system: systemic lupus erythematosus (SLE); settings: intraperitoneal administration

| Compound | clinical and histologic signs of collagen II-antibody-induced arthritis [1] | joint inflammation and damage [2] | CD4+ T-cell populations [3] | glomerulonephritis [3] | life span [3] | cardioprotection (myocardial infarction; dosing after myocardial reperfusion (up to 3 hours after)) | edema and inflammation in response to multiple mediators (myocardial infarction; in vivo) |
| --- | --- | --- | --- | --- | --- | --- | --- |
| O=C1NC(=O)/C(=C\c2ccc3nccnc3c2)S1 [AS-605240] | reduced clinical and histologic signs | decreased joint inflammation and damage | reduced CD4+ T-cell populations | reduced glomerulonephritis | prolonged life span |  |  |
| Nc1nc(N)c2nc(-c3cccc(O)c3)c(-c3cccc(O)c3)nc2n1 [TG100-115] |  |  |  |  |  | provided cardioprotection | potently inhibits |
